Assays:
matrix-metalloproteases = conditions: cited from earlier work
UM-SCC-1 cells [1] = test: In vitro invasion assay on Matrigel coated filters; assay type: cell-based, human; conditions: 60 hours, serum-free medium, +/− S.E., 3 dishes
Method: Invasion assays were performed as described (20, 25) using filters with 8 μm pore size coated with ⅓ diluted Matrigel®/SFM (Becton Dickinson, Bedford, Mass.). […] For experiments utilizing a mouse monoclonal MMP-9 Antibody (#IM09L, Oncogene Research Products, Cambridge, Mass.) (0.5, 1, and 10 μg/ml) cells were either plated out in SFM plus antibody of SFM plus similar amounts of preimmune serum. The amount of invasion was determined on the basis of the MTT-activity on the lower side of the filter as a percentage of the total activity in the chamber.
The concentration of the carrier (DMSO) was maintained at 0.1%. […] The data are typical of triplicate experiments.
Invasion is expressed as the percentage of cells invading through Matrigel®. Invasion upon treatment with varying concentrations of the antibody recognizing the active and latent form of MMP-9 or preimmune serum provided by the manufacturer is expressed as average percentage+/−S.E. and represents 3 dishes in each group. The data are typical of triplicate experiments.

UM-SCC-1 cells [2] = test: Cell growth curves (MTT-vital stain); assay type: cell-based, human; conditions: 5 μM and 10 μM, up to 5 days, medium with 10% FBS
p38γ = molecular target: T1, p38γ (Homo sapiens, UniProt P53778); conditions: reported (ref. 27); cited from earlier work
T1 sequence (P53778 1-367): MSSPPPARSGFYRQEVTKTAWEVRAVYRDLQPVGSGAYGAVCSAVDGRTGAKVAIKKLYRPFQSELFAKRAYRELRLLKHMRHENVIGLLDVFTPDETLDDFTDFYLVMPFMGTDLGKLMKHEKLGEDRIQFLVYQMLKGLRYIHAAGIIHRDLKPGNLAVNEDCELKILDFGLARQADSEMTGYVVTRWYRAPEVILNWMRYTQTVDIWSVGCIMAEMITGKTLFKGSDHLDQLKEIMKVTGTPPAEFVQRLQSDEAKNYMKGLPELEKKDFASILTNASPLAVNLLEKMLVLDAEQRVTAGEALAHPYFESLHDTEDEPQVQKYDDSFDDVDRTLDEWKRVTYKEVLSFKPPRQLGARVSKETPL

p38δ = molecular target: T2, p38δ (Homo sapiens, UniProt O15264); conditions: reported (ref. 27); cited from earlier work
T2 sequence (O15264 1-365): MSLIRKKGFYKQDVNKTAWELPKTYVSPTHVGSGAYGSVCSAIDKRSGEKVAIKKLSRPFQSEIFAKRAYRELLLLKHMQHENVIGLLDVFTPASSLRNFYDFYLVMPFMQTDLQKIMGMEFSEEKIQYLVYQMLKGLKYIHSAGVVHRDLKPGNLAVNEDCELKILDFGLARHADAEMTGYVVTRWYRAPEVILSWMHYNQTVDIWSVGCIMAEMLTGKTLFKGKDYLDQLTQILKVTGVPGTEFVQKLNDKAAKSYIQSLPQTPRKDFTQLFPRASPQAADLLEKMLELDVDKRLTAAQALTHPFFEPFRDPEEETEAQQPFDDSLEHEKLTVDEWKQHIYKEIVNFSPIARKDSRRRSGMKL

MMP-9 = conditions: after treatment with phorbol myristate acetate (PMA); cited from earlier work
UMSCC-1 = conditions: after treatment with phorbol myristate acetate (PMA); cited from earlier work

| Structure (SMILES) | IC50 value (matrix-metalloproteases) | reduction of in-vitro invasion (UM-SCC-1 cells [1]; 5 μM) | reduction of in-vitro invasion (UM-SCC-1 cells [1]; 10 μM) | effect on cell growth (UM-SCC-1 cells [2]) | inhibition of p38γ (p38γ) | inhibition of p38δ (p38δ) | inhibition of enhanced MMP-9 secretion (MMP-9) | inhibition of enhanced in-vitro invasiveness (UMSCC-1) |
| --- | --- | --- | --- | --- | --- | --- | --- | --- |
| CNC(=O)[C@@H](NC(=O)[C@H](CC(C)C)[C@H](O)C(=O)NO)C(C)(C)C [marimastat] | micromolar range | – | – | – | – | – | – | – |
| C[S+]([O-])c1ccc(-c2nc(-c3ccncc3)c(-c3ccc(F)cc3)[nH]2)cc1 (centres unmarked) [SB 203580] | – | 43+/−9% | 69+/−8% | does not affect cell growth | not inhibited | not inhibited | could be inhibited | could be inhibited |

Source: patent US20040067883A1, “Use of matrix metalloprotease inhibitors for the treatment of cancer” (priority 2000, published 2004)
